Columns and labels:
[1] = human gut metagenome, 24 h, 2 µM
[2] = (§1) The drug is tested on Z-010 corresponding to metagenome with ENA study accession number: PRJEB37062 and ENA sample accession number: ERS12561810 for biotransformation under anaerobic condition. The drug concentrations were measured over 9 timepoints collected between 0 and 24 hours of incubation by liquid-chromatography-coupled mass spectrometry (LC–MS); conditions: 2 µM
[3] = human gut metagenome, 24 h, 2 µM; remark: listed apart in the source
[4] = as §1, with “Z-005” for “Z-010”, “ERS12561805” for “ERS12561810”; conditions: 2 µM
[5] = human gut metagenome, 24 h, 2 µM; remark: listed apart in the source
[6] = (§2) The drug is tested on Z-013 corresponding to rabbit gut metagenome with ENA study accession number: PRJEB37062 and ENA sample accession number: ERS12561813 for biotransformation under anaerobic condition. The drug concentrations were measured over 9 timepoints collected between 0 and 24 hours of incubation by liquid-chromatography-coupled mass spectrometry (LC–MS); conditions: 2 µM
[7] = human gut metagenome, 24 h, 2 µM; remark: listed apart in the source
[8] = as §2, with “Z-002” for “Z-013”, “ERS12561802” for “ERS12561813”; conditions: 2 µM
[9] = as §2, with “Z-009” for “Z-013”, “pig” for “rabbit”, “ERS12561809” for “ERS12561813”; conditions: 2 µM
[10] = human gut metagenome, 24 h, 2 µM; remark: listed apart in the source
[11] = human gut metagenome, 24 h, 2 µM; remark: listed apart in the source
[12] = as §2, with “Z-028” for “Z-013”, “mouse” for “rabbit”, “ERS12561827” for “ERS12561813”; conditions: 2 µM
[13] = as §2, with “Z-017” for “Z-013”, “mouse” for “rabbit”, “ERS12561816” for “ERS12561813”; conditions: 2 µM
[14] = as §2, with “WLS-240” for “Z-013”, “human” for “rabbit”, “ERS12561773” for “ERS12561813”; conditions: 2 µM
[15] = human gut metagenome, 24 h, 2 µM; remark: listed apart in the source
[16] = as §2, with “Z-022” for “Z-013”, “mouse” for “rabbit”, “ERS12561821” for “ERS12561813”; conditions: 2 µM
[17] = as §2, with “WLS-098” for “Z-013”, “human” for “rabbit”, “ERS12561754” for “ERS12561813”; conditions: 2 µM
[18] = human gut metagenome, 24 h, 2 µM; remark: listed apart in the source
[19] = as §2, with “Z-030” for “Z-013”, “mouse” for “rabbit”, “ERS12561829” for “ERS12561813”; conditions: 2 µM
[20] = human gut metagenome, 24 h, 2 µM; remark: listed apart in the source
Note: call rule not given here.

Bacterial Biotransformation [1]	Bacterial Biotransformation [2]	Bacterial Biotransformation [3]	Bacterial Biotransformation [4]	Bacterial Biotransformation [5]	Bacterial Biotransformation [6]	Bacterial Biotransformation [7]	Bacterial Biotransformation [8]	Bacterial Biotransformation [9]	Bacterial Biotransformation [10]	Bacterial Biotransformation [11]	Bacterial Biotransformation [12]	Bacterial Biotransformation [13]	Bacterial Biotransformation [14]	Bacterial Biotransformation [15]	Bacterial Biotransformation [16]	Bacterial Biotransformation [17]	Bacterial Biotransformation [18]	Bacterial Biotransformation [19]	Bacterial Biotransformation [20]	SMILES
Compound metabolized	Compound metabolized	Compound NOT metabolized	Compound metabolized	Compound metabolized	Compound NOT metabolized	Compound metabolized	Compound metabolized	Compound NOT metabolized	Compound NOT metabolized	Compound metabolized	Compound NOT metabolized	Compound NOT metabolized	Compound metabolized	Compound metabolized	Compound NOT metabolized	Compound metabolized	Compound metabolized	Compound NOT metabolized	Compound metabolized	CC(C)c1c(C(=O)Nc2ccccc2)c(-c2ccccc2)c(-c2ccc(F)cc2)n1CC[C@@H](O)C[C@@H](O)CC(=O)O [ATORVASTATIN]
Compound metabolized	Compound metabolized	Compound metabolized	Compound metabolized	Compound metabolized	Compound NOT metabolized	Compound metabolized	Compound metabolized	Compound metabolized	Compound metabolized	Compound metabolized	Compound metabolized	Compound metabolized	Compound metabolized	Compound metabolized	Compound metabolized	Compound metabolized	Compound metabolized	Compound metabolized	Compound metabolized	CCOC(=O)[C@H](CCc1ccccc1)N[C@H]1CCc2ccccc2N(CC(=O)O)C1=O [BENAZEPRIL]
Compound NOT metabolized	Compound NOT metabolized	Compound NOT metabolized	Compound NOT metabolized	Compound NOT metabolized	Compound NOT metabolized	Compound NOT metabolized	Compound metabolized	Compound NOT metabolized	Compound NOT metabolized	Compound NOT metabolized	Compound NOT metabolized	Compound NOT metabolized	Compound NOT metabolized	Compound NOT metabolized	Compound NOT metabolized	Compound NOT metabolized	Compound NOT metabolized	Compound NOT metabolized	Compound NOT metabolized	NS(=O)(=O)c1cc2c(cc1Cl)N=C(CSCc1ccccc1)NS2(=O)=O [BENZTHIAZIDE]
Compound NOT metabolized	Compound NOT metabolized	Compound NOT metabolized	Compound NOT metabolized	Compound metabolized	Compound NOT metabolized	Compound NOT metabolized	Compound NOT metabolized	Compound NOT metabolized	Compound NOT metabolized	Compound metabolized	Compound NOT metabolized	Compound NOT metabolized	Compound metabolized	Compound metabolized	Compound NOT metabolized	Compound NOT metabolized	Compound metabolized	Compound NOT metabolized	Compound NOT metabolized	Cc1ccc(-c2cc(C(F)(F)F)nn2-c2ccc(S(N)(=O)=O)cc2)cc1 [CELECOXIB]

Second part, the molecule before the results:

SMILES	Bacterial Biotransformation [1]	Bacterial Biotransformation [2]	Bacterial Biotransformation [3]	Bacterial Biotransformation [4]	Bacterial Biotransformation [5]	Bacterial Biotransformation [6]	Bacterial Biotransformation [7]	Bacterial Biotransformation [8]	Bacterial Biotransformation [9]	Bacterial Biotransformation [10]	Bacterial Biotransformation [11]	Bacterial Biotransformation [12]	Bacterial Biotransformation [13]	Bacterial Biotransformation [14]	Bacterial Biotransformation [15]	Bacterial Biotransformation [16]	Bacterial Biotransformation [17]	Bacterial Biotransformation [18]	Bacterial Biotransformation [19]	Bacterial Biotransformation [20]
CCCC(=O)Nc1ccc(OCC(O)CNC(C)C)c(C(C)=O)c1 (stereo not given) [ACEBUTOLOL]	Compound metabolized	Compound NOT metabolized	Compound metabolized	Compound NOT metabolized	Compound metabolized	Compound NOT metabolized	Compound metabolized	Compound metabolized	Compound NOT metabolized	Compound NOT metabolized	Compound metabolized	Compound NOT metabolized	Compound NOT metabolized	Compound metabolized	Compound metabolized	Compound metabolized	Compound metabolized	Compound metabolized	Compound NOT metabolized	Compound NOT metabolized
C=CCc1ccccc1OCC(O)CNC(C)C (stereo not given) [ALPRENOLOL]	Compound metabolized	Compound NOT metabolized	Compound metabolized	Compound NOT metabolized	Compound metabolized	Compound NOT metabolized	Compound metabolized	Compound metabolized	Compound NOT metabolized	Compound NOT metabolized	Compound metabolized	Compound NOT metabolized	Compound NOT metabolized	Compound metabolized	Compound NOT metabolized	Compound metabolized	Compound metabolized	Compound metabolized	Compound NOT metabolized	Compound NOT metabolized
CC(C)NCC(O)COc1ccc(COCCOC(C)C)cc1.CC(C)NCC(O)COc1ccc(COCCOC(C)C)cc1.O=C(O)/C=C/C(=O)O (stereo not given) [BISOPROLOL FUMARATE]	Compound NOT metabolized	Compound NOT metabolized	Compound metabolized	Compound NOT metabolized	Compound metabolized	Compound NOT metabolized	Compound NOT metabolized	Compound metabolized	Compound metabolized	Compound metabolized	Compound metabolized	Compound NOT metabolized	Compound NOT metabolized	Compound metabolized	Compound metabolized	Compound metabolized	Compound metabolized	Compound NOT metabolized	Compound NOT metabolized	Compound NOT metabolized
CCCCCOC(=O)Nc1nc(=O)n([C@@H]2O[C@H](C)[C@@H](O)[C@H]2O)cc1F [CAPECITABINE]	Compound metabolized	Compound metabolized	Compound metabolized	Compound metabolized	Compound metabolized	Compound metabolized	Compound metabolized	Compound metabolized	Compound metabolized	Compound metabolized	Compound metabolized	Compound metabolized	Compound metabolized	Compound metabolized	Compound metabolized	Compound NOT metabolized	Compound metabolized	Compound metabolized	Compound metabolized	Compound metabolized
